Measurements from the NIST ThermoML archive (doi:10.1016/j.fluid.2014.12.003).
± gives the expanded uncertainty stated by the source.

Details: 298.15 K; 101.33 kPa; Liquid; Vibrating tube method

| Structure (SMILES) | mass density |
| --- | --- |
| CCCC[N+]1(C)CCCC1.N#CC(=C=[N-])C#N [1-butyl-1-methylpyrrolidinium tricyanomethanide] | 1006.75 ± 1.3 kg/m3 |
| CCCC[N+]1(C)CCOCC1.N#C[C-](C#N)C#N [4-butyl-4-methylmorpholinium tricyanomethanide] | 1067.06 ± 1.3 kg/m3 |
| c1ccccc1 [benzene] | 873.53 ± 1 kg/m3 |
| CCCCCCC [heptane] | 679.55 ± 1 kg/m3 |
| CCCCCCO [hexan-1-ol] | 814.94 ± 1 kg/m3 |
| Cc1ccccc1 [toluene] | 863.67 ± 1 kg/m3 |

More lines, now with the values ahead:

| mass density | Structure (SMILES) |
| --- | --- |
| 826.38 ± 1 kg/m3 | CCCCCCCCCCO [decan-1-ol] |
| 862.97 ± 1 kg/m3 | CCc1ccccc1 [ethylbenzene] |
| 823.27 ± 1 kg/m3 | CCCCCCCCO [octan-1-ol] |
| 1058.48 ± 1 kg/m3 | c1ccsc1 [thiophene] |
